Our source for the IC50 and GI50 values is patent publication US20080269267A1, “KINASE INHIBITORS USEFUL FOR THE TREATMENT OF MYLEOPROLIFIC DISEASES AND OTHER PROLIFERATIVE DISEASES” (Deciphera Pharmaceuticals, LLC, priority 2007, published 2008).

Numbering of substitutions follows the chain as printed. Structures can show the parent of a compound that is named as a salt.

One experiment addresses T1, Abl kinase (SEQ ID NO:1) (Homo sapiens, UniProt P00519).
T1 construct: purchased deCode Genetics
T1 sequence (P00519 with tags, fused parts or gaps): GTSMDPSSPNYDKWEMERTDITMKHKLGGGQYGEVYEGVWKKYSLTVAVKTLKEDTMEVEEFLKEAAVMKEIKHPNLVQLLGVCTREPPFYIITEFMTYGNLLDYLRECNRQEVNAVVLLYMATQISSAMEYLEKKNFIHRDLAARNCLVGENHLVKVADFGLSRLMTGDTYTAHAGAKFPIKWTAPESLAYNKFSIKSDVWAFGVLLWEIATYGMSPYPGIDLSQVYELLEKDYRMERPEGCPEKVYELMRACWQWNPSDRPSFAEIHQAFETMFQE
The experiment in a line: Abl kinase assay (pyruvate kinase/lactate dehydrogenase coupled, ADP production). The settings on record: 2 h preincubation at 30° C., ATP 500 μM; read-out: Abl Enzyme Assay, biochemical IC50. The protocol: Abl Kinase (SEQ ID NO:1) Assay
Activity of Abl kinase (SEQ ID NO:1) was determined by following the production of ADP from the kinase reaction through coupling with the pyruvate kinase/lactate dehydrogenase system (e.g., Schindler, et al. Science (2000) 289, 1938-1942). In this assay, the oxidation of NADH (thus the decrease at A340nm) was continuously monitored spectrophometrically. The reaction mixture (100 μl) contained Abl kinase (1 nM. Abl from deCode Genetics), peptide substrate (EAIYAAPFAKKK. 0.2 mM), MgCl2 (10 mM), pyruvate kinase (4 units), lactate dehydrogenase (0.7 units), phosphoenol pyruvate (1 mM), and NADH (0.28 mM) in 90 mM Tris buffer containing 0.2% octyl-glucoside and 3.5% DMSO, pH 7.5. Test compounds were incubated with Abl (SEQ ID NO:1) and other reaction reagents at 30° C. for 2 h before ATP (500 μM) was added to start the reaction. The absorption at 340 nm was monitored continuously for 2 hours at 30° C. on Polarstar Optima plate reader (BMG). The reaction rate was calculated using the 1.0 to 2.0 h time frame. Percent inhibition was obtained by comparison of reaction rate with that of a control (i.e. with no test compound). IC50 values were calculated from a series of percent inhibition values determined at a range of inhibitor concentrations using software routines as implemented in the GraphPad Prism software package.

The target of experiment [1] is B-Raf(V600E) kinase (SEQ ID NO:11) (Homo sapiens, UniProt P15056, V600E). Kind of experiment: B-Raf(V600E) kinase assay (pyruvate kinase/lactate dehydrogenase coupled, MEK1 substrate). The settings on record: 1 h preincubation at 30° C., ATP 0.2 mM; read-out: B-Raf V600E Enzyme Assay, biochemical IC50. The protocol: B-Raf(V600E) Kinase Assay
B-Raf(V600E) kinase (SEQ ID NO:11), sequence (P15056 with tags, fused parts or gaps V600E): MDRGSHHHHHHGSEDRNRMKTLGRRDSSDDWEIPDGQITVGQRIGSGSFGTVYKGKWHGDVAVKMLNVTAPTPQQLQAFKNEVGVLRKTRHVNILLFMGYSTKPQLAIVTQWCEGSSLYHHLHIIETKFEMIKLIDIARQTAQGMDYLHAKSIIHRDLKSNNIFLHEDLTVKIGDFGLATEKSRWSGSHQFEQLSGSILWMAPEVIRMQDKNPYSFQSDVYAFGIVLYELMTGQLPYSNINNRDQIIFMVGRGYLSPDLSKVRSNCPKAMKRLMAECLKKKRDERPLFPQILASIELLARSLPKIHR
The activity of B-Raf(V600E) kinase (SEQ ID NO:11) was determined by following the formation of ADP from the reaction through coupling with the pyruvate kinase/lactate dehydrogenase system (e.g., Schindler, et al. Science (2000) 289, 1938-1942). In this assay, the oxidation of NADH (thus the decrease at A340nm) was continuously monitored spectrophotometrically. The reaction mixture (100 μl) contained B-Raf(V600E) kinase (0.34 nM nominal concentration, SEQ ID NO:11), unphosphorylated, full-length MEK1 (42 nM, SEQ ID NO:12), MgCl2 (13 mM), pyruvate kinase (3.5 units), lactate dehydrogenase (5.5 units), phosphoenolpyruvate (1 mM), and NADH (0.28 mM), in 60 mM Tris buffer, containing 0.13% octyl-glucoside and 3.5% DMSO concentration at pH 7.5. The test compounds were incubated with the reaction mixture at 30° C. for 1 h. The reaction was initiated by adding ATP (0.2 mM, final concentration). The absorption at 340 nm was continuously monitored for 3 h at 30° C. on a Polarstar Optima plate reader (BMG). The reaction rate was calculated using the 0.5 h to 1.5 h time frame. Percent inhibition was obtained by comparison of reaction rate with that of a control (i.e. with no test compound). IC50 values were calculated from a series of percent inhibition values determined at a range of inhibitor concentrations using software routines as implemented in the GraphPad Prism software package.

Experiment [2] deals with T2, BaF3 cells transfected with wild type p210 BCR-Abl (Homo sapiens, UniProt P00519).
T2 construct: fused on or other part: P11274 (Breakpoint cluster region protein)
Kind of experiment: Ba/F3 p210 whole cell proliferation assay (Cell Titer Blue, 72 hours). The experiment is classed as cell-based. The settings on record: 72 hours incubation; read-out: Ba/F3 p210 whole cell proliferation assay, antiproliferation IC50. How it is done: (§1) BaF3 cells (parental or transfected with the following: wild type p210 BCR-Abl and T315I p210 BCR-Abl was obtained from Professor Richard Van Etten (New England Medical Center, Boston, Mass.). Briefly, cells were grown in RPMI 1640 supplemented with 10% characterized fetal bovine serum (HyClone, Logan, Utah) at 37 degrees Celsius, 5% CO2, 95% humidity. Cells were allowed to expand until reaching 80% saturation at which point they were subcultured or harvested for assay use.
(§2) A serial dilution of test compound was dispensed into a 96 well black clear bottom plate (Corning, Corning, N.Y.). For each cell line, three thousand cells were added per well in complete growth medium. Plates were incubated for 72 hours at 37 degrees Celsius, 5% CO2, 95% humidity. At the end of the incubation period Cell Titer Blue (Promega, Madison, Wis.) was added to each well and an additional 4.5 hour incubation at 37 degrees Celsius, 5% CO2, 95% humidity was performed. Plates were then read on a BMG Fluostar Optima (BMG, Durham, N.C.) using an excitation of 544 nm and an emission of 612 nm. Data was analyzed using Prism software (Graphpad, San Diego, Calif.) to calculate IC50's.

Experiment [3] has as its target T3, BaF3 cells transfected with T315I p210 BCR-Abl (Homo sapiens, UniProt P00519, T315I, cells depend on it).
T3 construct: fused on or other part: P11274 (Breakpoint cluster region protein)
The experiment in a line: Ba/F3 p210 T315I whole cell proliferation assay (Cell Titer Blue, 72 hours). The settings on record: 72 hours incubation; read-out: Ba/F3 p210 T315I whole cell proliferation assay, antiproliferation IC50. The experiment is classed as cell-based. The protocol:
as §1, §2
In general terms: Resazurin is reduced to fluorescent resorufin, in cell work by metabolically active cells.

Experiment [4] concerns the target T4, C-Met kinase (SEQ ID NO:10) (Homo sapiens, UniProt P08581).
T4 construct: purchased Invitrogen PV3143
The experiment in a line: C-Met kinase assay (pyruvate kinase/lactate dehydrogenase coupled). The settings on record: 0.5 h preincubation at 22° C., ATP 100 μM; read-out: c-Met Enzyme Assay, biochemical IC50. How it is done:
C-Met Kinase (SEQ ID NO:10) Assay
Activity of C-Met kinase (SEQ ID NO:10) was determined by following the production of ADP from the kinase reaction through coupling with the pyruvate kinase/lactate dehydrogenase system (e.g., Schindler, et al. Science (2000) 289, 1938-1942). In this assay, the oxidation of NADH (thus the decrease at A340 nm) was continuously monitored spectrophometrically. The reaction mixture (100 μl) contained C-Met (c-Met residues; 956-1390, from Invitrogen, catalogue #PV3143, 6 nM), polyE4Y (1 mg/ml), MgCl2 (10 mM), pyruvate kinase (4 units), lactate dehydrogenase (0.7 units), phosphoenol pyruvate (1 mM), and NADH (0.28 mM) in 90 mM Tris buffer containing 0.25 mM DTT, 0.2% octyl-glucoside and 1% DMSO, pH 7.5. Test compounds were incubated with C-Met (SEQ ID NO:10) and other reaction reagents at 22° C. for 0.5 h before ATP (100 μM) was added to start the reaction. The absorption at 340 n=was monitored continuously for 2 hours at 30° C. on Polarstar Optima plate reader (BMG). The reaction rate was calculated using the 1.0 to 2.0 h time frame. Percent inhibition was obtained by comparison of reaction rate with that of a control (i.e. with no test compound). IC50 values were calculated from a series of percent inhibition values determined at a range of inhibitor concentrations using software routines as implemented in the GraphPad Prism software package.

In experiment [5] the target is T5, T315I Abl kinase (SEQ ID NO:2) (Homo sapiens, UniProt P00519, T315I).
T5 construct: purchased deCode Genetics
T5 sequence (P00519 with tags, fused parts or gaps T315I): T1 sequence (P00519 with tags, fused parts or gaps) with T94I
Kind of experiment: T315I Abl kinase assay (pyruvate kinase/lactate dehydrogenase coupled). The settings on record: 1 h preincubation at 30° C., ATP 500 μM; read-out: Abl T315l Enzyme Assay, biochemical IC50. How it is done: Abl Kinase (SEQ ID NO:2) Assay
Activity of T315I Abl kinase (SEQ ID NO:2) was determined by following the production of ADP from the kinase reaction through coupling with the pyruvate kinase/lactate dehydrogenase system (e.g., Schindler, et al. Science (2000) 289, 1938-1942). In this assay, the oxidation of NADH (thus the decrease at A340nm) was continuously monitored spectrophometrically. The reaction mixture (100 μl) contained Abl kinase (4.4 nM. […] Abl from deCode Genetics), peptide substrate (EAIYAAPFAKKK, 0.2 mM), MgCl2 (10 mM), pyruvate kinase (4 units), lactate dehydrogenase (0.7 units), phosphoenol pyruvate (1 mM), and NADH (0.28 mM) in 90 mM Tris buffer containing 0.2% octyl-glucoside and 1% DMSO, pH 7.5. Test compounds were incubated with T315I Abl (SEQ ID NO:2) and other reaction reagents at 30° C. for 1 h before ATP (500 μM) was added to start the reaction. The absorption at 340 nm was monitored continuously for 2 hours at 30° C. on Polarstar Optima plate reader (BMG). The reaction rate was calculated using the 1.0 to 2.0 h time frame. Percent inhibition was obtained by comparison of reaction rate with that of a control (i.e. with no test compound). IC50 values were calculated from a series of percent inhibition values determined at a range of inhibitor concentrations using software routines as implemented in the GraphPad Prism software package.

T4 sequence (P08581 with tags, fused parts or gaps): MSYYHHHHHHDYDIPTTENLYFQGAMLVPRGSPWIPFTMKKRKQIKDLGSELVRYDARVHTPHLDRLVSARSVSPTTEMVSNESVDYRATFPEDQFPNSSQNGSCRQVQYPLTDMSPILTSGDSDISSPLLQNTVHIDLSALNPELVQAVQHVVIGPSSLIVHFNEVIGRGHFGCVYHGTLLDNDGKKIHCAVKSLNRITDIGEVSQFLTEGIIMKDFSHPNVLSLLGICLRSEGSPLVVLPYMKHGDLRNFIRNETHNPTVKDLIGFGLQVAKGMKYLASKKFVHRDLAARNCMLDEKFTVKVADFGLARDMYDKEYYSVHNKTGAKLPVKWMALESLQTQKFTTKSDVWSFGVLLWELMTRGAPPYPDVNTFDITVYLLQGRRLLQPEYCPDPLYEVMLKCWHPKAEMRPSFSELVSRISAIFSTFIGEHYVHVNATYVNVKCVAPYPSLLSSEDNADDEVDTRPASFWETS

In the case of `CCn1ncc(NC(=O)Nc2ccc(Oc3ccnc(-c4cnn(C)c4)c3)cc2F)c1-c1ccccc1` [Example 22, 1-(1-ethyl-5-phenyl-1H-pyrazol-4-yl)-3-(2-fluoro-4-(2-(1-methyl-1H-pyrazol-4-yl)pyridin-4-yloxy)phenyl)urea hydrochloride], the concentration for half-maximal inhibition (IC50) is less than 1 µM at Abl kinase (SEQ ID NO:1) and less than 10 µM in experiment [1].
For `CCCn1cc(-c2cc(Oc3ccc(NC(=O)Nc4cc(CC)nn4-c4cccc(C#N)c4)c(F)c3)ccn2)cn1` [Example 15, 1-(1-(3-cyanophenyl)-S-ethyl-1H-pyrazol-5-yl)-3-(2-fluoro-4-(2-(1-propyl-1H-pyrazol-4-yl)pyridin-4-yloxy)phenyl)urea], the half-inhibitory concentration (IC50) at Abl kinase (SEQ ID NO:1) is less than 0.1 µM; in experiment [1] it was less than 1 µM; in experiment [4] it was less than 1 µM. Moreover, the GI50 in experiment [2] and in experiment [3] was less than 0.1 µM in each case.
As for `Cn1cc(-c2cc(Oc3ccc(NC(=O)Nc4cc(C(C)(C)C)nn4-c4ccccc4)c(F)c3)ccn2)cn1` [Example 1, 1-(3-t-butyl-1-phenyl-1H-pyrazol-5-yl)-3-(2-fluoro-4-(2-(1-methyl-1H-pyrazol-4-yl)pyridin-4-yloxy)phenyl)urea], the half-maximal inhibitory concentration (IC50) (on Abl kinase (SEQ ID NO:1); in experiment [5]; in experiment [4]) was less than 0.1 µM in each case. Further, the GI50 in experiment [2] and in experiment [3] was less than 0.1 µM each time.
Take `CCn1cc(NC(=O)Nc2ccc(Oc3ccnc(-c4cnn(C)c4)c3)cc2F)c(-c2ccccc2)n1` [Example 23, 1-(1-ethyl-3-phenyl-1H-pyrazol-4-yl)-3-(2-fluoro-4-(2-(1-methyl-1H-pyrazol-4-yl)pyridin-4-yloxy)phenyl)urea hydrochloride]: the IC50 is less than 0.1 µM at Abl kinase (SEQ ID NO:1) and less than 10 µM in experiment [1].
As for `CCc1cc(NC(=O)Nc2ccc(Oc3ccnc(-c4cnn(CC)c4)c3)cc2F)n(-c2cccc(C#N)c2)n1` [Example 18, 1-(1-(3-cyanophenyl)-3-ethyl-1H-pyrazol-5-yl)-3-(4-(2-(1-ethyl-1H-pyrazol-4-yl)pyridin-4-yloxy)-2-fluorophenyl)urea], the IC50 was less than 0.1 µM at Abl kinase (SEQ ID NO:1), less than 1 µM in experiment [1] and less than 1 µM in experiment [4]. Also, the GI50 in experiment [2] and in experiment [3] was less than 0.1 µM in each case.
For the molecule `CC(C)n1ncc(NC(=O)Nc2ccc(Oc3ccnc(-c4cnn(C)c4)c3)cc2F)c1-c1ccccc1` [Example 20, 1-(2-fluoro-4-(2-(1-methyl-1H-pyrazol-4-yl)pyridin-4-yloxy)phenyl)-3-(1-isopropyl-5-phenyl-1H-pyrazol-4-yl)urea], the IC50 was less than 0.1 µM at Abl kinase (SEQ ID NO:1) and less than 10 µM in experiment [1]. The GI50 is less than 0.1 µM in experiment [2] and less than 1 µM in experiment [3].

As a reminder, the IC50 is the concentration that gives 50% inhibition.
